Source: patent US20250177302A1, “LIPOSOME COMPOSITION AND LIPOSOME-CONTAINING PHARMACEUTICAL COMPOSITION” (Eisai R&D Management Co., Ltd., priority 2022, published 2025)

Key:
[1] = Measurement of blood drug concentration (2), change over time; type: in vivo; details: mice, i.v. 2 mg/kg, 15 minutes, 4 hours and 24 hours after administration
Procedure: The blood was centrifuged for 10 minutes at about 1200 g, and the plasma was collected. The drug concentration of the harvested plasma was assayed using LC-MS/MS.
The liposome compositions of Examples 2, 5 and 8, and an aqueous solution of methanesulfonic acid salt of compound (I), were administered to mice by the same method as “4. Measurement of blood drug concentration (1)”, collecting blood at 15 minutes, 4 hours and 24 hours after administration, and measuring the change in blood drug concentration.

[2] = test system: HUVEC proliferation in the presence of VEGF; test: HUVEC 2D growth assay, cell proliferation by VEGF stimulation; type: cell-based; details: Homo sapiens, 72 h, VEGF 20 ng/mL, 3 days, CellTiter-Glo
Procedure: (§1) 1. Measurement of Inhibiting Effect on Cell Proliferation by Vascular Endothelial Growth Factor (VEGF) or Basic Fibroblast Growth Factor (bFGF) Stimulation
(§2) The inhibiting effect of compound (I) on cell proliferation by VEGF or bFGF stimulation was evaluated by the following procedure based on HUVEC 2D growth assay.
(§3) Normal human umbilical vein endothelial cells (HUVEC) were isolated by a previously reported method (Shinseikagaku Jikken Koza, “Cell Culture Technology”, p.197-202). The cells were cultured overnight in a collagen I-coated flask (IWAKI 4143-010), with EGM-2 culture medium (Lonza Inc CC-3162) containing 10% Fetal Bovine Serum (FBS: Sigma 172012) in a 5% CO2 incubator (37° C.). On the following day, the culture supernatant was discarded and the medium was exchanged with EBM-2 culture medium containing 2% FBS, prior to further culturing overnight. On the following day, 2% FBS, and a HUVEC cell suspension prepared to 1.5×10^4 cells/mL with Human Endothelial Serum Free Medium (SFM: Gibco 11111-044) containing penicillin/streptomycin (FujiFilm-Wako Pure Chemical Industries) (hereunder referred to as “2% FBS-SFM”) were each added at 100 μL to each well of a 96-well plate (Corning 3904), and culturing was carried out overnight in a 5% CO2 incubator (37° C.). […]

[3] = test system: HUVEC proliferation in the presence of bFGF; test: HUVEC 2D growth assay, cell proliferation by bFGF stimulation; type: cell-based; details: Homo sapiens, 72 h, bFGF 20 ng/mL, 3 days, CellTiter-Glo
Procedure: as §1, §2, §3

Change in blood drug concentration (FIG. 1), in words [1] | Structure (SMILES) | IC50 [2] | IC50 [3]
significantly lower after 24 hours | CCNC(=O)Nc1ccc(Oc2ccnc3cc(OC)c(C(N)=O)cc23)cc1Cl.CS(=O)(=O)O [4-(3-Chloro-4-(ethylaminocarbonyl)aminophenoxy)-7-methoxy-6-quinolinecarboxamide methanesulfonate] |  | 
 | CCNC(=O)Nc1ccc(Oc2ccnc3cc(OC)c(C(N)=O)cc23)cc1Cl [compound (I), 4-(3-chloro-4-(ethylaminocarbonyl)aminophenoxy)-7-methoxy-6-quinolinecarboxamide] | 1.75 nM | 343 nM
